Columns and labels:
rat beta cells [1] = assay: Glucose utilization and oxidation by isolated beta cells; assay type: cell-based; conditions: 6-day HC treatment
Protocol: FIG. 9: Glucose utilization and oxidation by isolated beta cells after treatment with HC. Purified rat beta cells were cultured for six days in control medium (white squares) or with HC (black triangles) at 10 mM glucose. Glucose utilization (A) was determined by the rate of D-(5-^3H)glucose conversion into ^3H2O and glucose oxidation (B) by that of D-(U-^14C)glucose into ^14CO2 during a 2 h incubation period at the indicated concentrations of glucose without HC. Values represent means±SEM, n=6; *, p<0.05 versus control.
Because GC signaling controls metabolic processes including glucose metabolism and we have previously reported that glucose regulates rat beta cell numbers through effects on beta cell survival and proliferation (Assefa et al., 2014)(Example 1), we investigated whether HC-induced beta cell proliferation is associated with a change in glucose metabolism. First, the metabolic effect of a 6-day treatment with HC was analyzed by 2 h glucose utilization and oxidation rates at different glucose concentrations. […] Further, HC treatment doubles the rates of both utilization and oxidation at 10 mM glucose as compared to those in control cells (p<0.05).

alpha cells = assay: Alpha cell numbers in cultured dissociated rat islet cells; assay type: cell-based; conditions: HC-containing medium; control 40±3%
Description: We next tested cell type-specificity of HC-induced proliferation by using dissociated rat islet cells containing 15-20% alpha cells and 10-15% other cell types. […] Non-endocrine pancreatic cells were virtually undetectable on day 15, presumably died out due to the serum-free culture conditions.

rat beta cells [2] = assay: Beta cell DNA synthesis/proliferation by EdU (and BrdU) incorporation, incl. LOPAC screen; assay type: cell-based
How it was run: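 Sorted beta cells on 804G matrix were cultured at 37° C in Ham F10 with 50 μM IBMX and 10 mM glucose. In the LOPAC screen, compounds were added on day 1, with EdU (10 μM) from days 3–6. Imaged % EdU-positive cells defined hits at a Z-score above three SD.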

alloxan-diabetic mice = assay: Implantation of in vitro expanded beta cells in alloxan-diabetic mice; assay type: in vivo
Protocol: FIG. 8. Alloxan-induced diabetes in mice can be reversed with implantation of in vitro-generated beta cells. Sorted beta cells were cultured in control medium or in the presence of HC up to day 9 and then switched to basal condition for the last six days of culture. IPGTT was used to determine glucose clearance rate. Glucose was administered (3 g/kg body weight) by in intraperitoneal injection into a 2 h-fasted animals and blood glucose levels were measured at the indicated time points during the following 120-min. Data are from animals transplanted with control cells (black triangles; n=3), in vitro expanded cells (black squares; n=5) and normal control animals (inverted triangles; n=2).
In this respect was it relevant to adjust culture conditions so that the expanded beta cell mass was not degranulated. We compared the in vivo function and hormone reserve of implants that were formed by equal numbers of beta cells collected from either control or HC-treated preparations, HC being withdrawn for the last 6 days (as in Table 7). At the end of 15 days culture, cell yield after HC was 54 to 110 percent higher than in control (paired cultures from three different islet isolation experiments), thus allowing preparation of more grafts per experiment. Respective grafts contained a similar number of beta cells and a similar total hormone content (for the three experiments between 10 to 15 μg insulin per graft). […] Both also presented an equally rapid normalization of glycemia following an intraperitoneal glucose load with similar kinetics to normal control animals (FIG. 8).

## C[C@]12CCC(=O)C=C1CC[C@@H]1[C@@H]2[C@@H](O)C[C@@]2(C)[C@H]1CC[C@]2(O)C(=O)CO [Hydrocortisone, hydrocortisone]
Rat beta cells [1]; 10 mM glucose
  rates of glucose utilization and oxidation compared to control cells: doubles
Rat beta cells [1]; 20 mM glucose
  increase of glucose utilization and oxidation over control cells: 50%
Alpha cells
  alpha cell numbers after 15-day culture (% of the starting level): 57±1%
Rat beta cells [2]; LOPAC screen at 1 μM, adult rat beta cells, EdU day 3 to 6, control medium 5.6
  Percent EdU+ cells: 28.0%
Rat beta cells [2]; LOPAC screen at 1 μM, adult rat beta cells, EdU day 3 to 6, hit cut-off three standard deviations
  Z-Score: 5.4
Rat beta cells [2]; survival and proliferation of rat beta cells, data not shown
  final concentration of optimal potency (dose-response studies): 1000 nM
alloxan-diabetic mice; HC group grafts, control 2.3±0.2
  circulating C-peptide level at week 1 post-transplantation: 2.4 ± 0.2 nM
alloxan-diabetic mice; HC group grafts, control 2.6±0.2
  circulating C-peptide level at week 5 post-transplantation: 2.6 ± 0.4 nM
alloxan-diabetic mice; animals transplanted with cells from proliferation condition (HC up to day 9, then control medium)
  Insulin Content, Pancreas: 0.7 ± 0.2 μg/sample
alloxan-diabetic mice; animals transplanted with cells from proliferation condition (HC up to day 9, then control medium), post-transplantation week 4
  Insulin Content, Graft: 7.2 ± 1.3 μg/sample
alloxan-diabetic mice; grafts of HC-treated beta cells in abdominal fat pad
  correction of hyperglycemia after implantation: corrected hyperglycemia within one week

— patent publication US20160274087A1, “SCREENING ASSAY FOR AGENTS THAT INFLUENCE BETA CELL NUMBER AND/OR PHENOTYPE” (VRIJE UNIVERSITEIT BRUSSEL, priority 2013, published 2016)
